In patent publication US12331038B2, “Hexone glucokinase inhibitor and use thereof” (SHANDONG XUANZHU PHARMA CO., LTD., priority 2019, dated 2025):
pEC50, pIC50: −log10 of the molar value.

Tests used:
KHK-C [1] = molecular target: T1, KHK-C (Homo sapiens (Human), UniProt P50053); assay: Inhibitory activity against KHK-C kinase in vitro (ADP-Glo), Experimental Protocol II; assay type: biochemical; conditions: 1 nM KHK-C, 100 μM ATP, 200 μM D-Fructose, control drug top concentration 1000 nM
Protocol: Experimental Protocol II: 1. Compound Dilution • 1) The compounds of the present invention and the control drug were formulated in DMSO to 10 mM as stock solutions for test. • 2) The stock solutions of the compounds of the present invention were diluted by 10-fold to 1 mM, and then further diluted in a 3-fold gradient to 11 concentrations, with the highest concentration being 1 mM. The stock solution of the control drug was diluted by 100-fold to 0.1 mM, and then further diluted in a 3-fold gradient to 11 concentrations, with the highest concentration being 0.1 mM. • 3) 0.1 μL of the compounds of the present invention and the control drug as diluted was transferred with Echo550 to a 384-well plate, in duplicate per concentration, and then centrifuged at 1000 rpm for 1 min. 2. Enzyme Reaction Test • 1) 5 μL of KHK-C kinase working solution was added to the 384-well plate, centrifuged at 1000 rpm for 1 min, and then incubated at room temperature of 25° C. for 15 min. • 2) 5 μL of the substrate working solution was added to the 384-well plate to initiate the kinase reaction, centrifuged at 1000 rpm for 1 min, and incubated at room temperature of 25° C. for 60 min. • 3) The final concentrations of the KHK-C kinase reaction system were 1 nM for KHK-C, 100 μM for ATP, 200 μM for D-Fructose, 50 mM for HEPES, 10 mM for MgCl2, and 0.01% for Brij35, and the final concentration of DMSO was 1%. • 4) The final concentrations of the test compounds were 10000 nM, 3333.33 nM, 1111.11 nM, 370.37 nM, 123.457 nM, 41.15 nM, 13.71 nM, 4.572 nM, 1.524 nM, 0.508 nM, and 0.169 nM, respectively. • 5) The final concentrations of the control drug were 1000 nM, 333.33 nM, 111.11 nM, 37.037 nM, 12.346 nM, 4.115 nM, 1.371 nM, 0.4572 nM, 0.1524 nM, 0.0508 nM, and 0.0169 nM, respectively. 3. Reaction Termination and Detection • 1) The 384-well plate was added with 10 μL of the ADP Glo reagent, centrifuged at 1000 rpm for 1 min, and then incubated at room temperature of 25° C. for 40 min. • 2) The 384-well plate was added with 20 μL of the kinase detection reagent, centrifuged at 1000 rpm for 1 min, and then incubated at room temperature of 25° C. for 40 min. • 3) After the reaction was completed, the […] value LUM was read on Envision. 4. Data Analysis The following equation was used to calculate the inhibition (% inh): […]

HepG2 cells = assay: Inhibition of production of fructose-1-phosphate induced by D-Fructose in HepG2 cells (LC-MS); assay type: cell-based; conditions: 30 min compound pre-incubation, D-Fructose 3 hours
Protocol: Experimental Protocol: 1. Cell Culture and Inoculation • 1) HepG2 cells in the logarithmic growth phase were collected and counted with a […]. The Trypan blue exclusion method was used to detect cell viability and ensure that cell viability is 90% or above. • 2) The concentration of HepG2 cells was adjusted, and 81 μL of the cell suspension in a FBS-free basal medium (starvation treatment) was add to a 96-well plate, with a cell inoculum amount of 5×10^4 cells per test well. • 3) The HepG2 cells in the 96-well plate were cultured overnight at 37° C., 5% CO2, and 95% humidity. 2. Administration • 1) Before administration, 9 μL of FBS was added to the test wells of the 96-well plate to stop the starvation treatment. • 2) 10× stock solutions of the individual test compounds were prepared by dilution in a 3-fold gradient to 8 concentrations, with the highest concentration of 100 μM. 10 μL of the test compound solutions was added to each well of the 96-well plate inoculated with the cells, in triplicate per test compound concentration. For the solvent control, 10 μL of 1% DMSO solution was added to each well, in triplicate. • 3) The cells in the 96-well plate added with the test compounds were incubated at 37° C., 5% CO2, and 95% humidity for 30 min. • 4) An 11-fold D-Fructose solution was prepared at the concentration of 220 mM. 10 μL of the D-Fructose solution was added to the 96-well plate inoculated with HepG2 cells per well, in triplicate. For the solvent control, 10 μL of 11% DPBS solution was added, in triplicate. • 5) The cells in the 96-well plate added with D-fructose were incubated at 37° C., 5% CO2, and 95% humidity for 3 hours. 3. Sample Treatment The medium in the 96-well plate was removed, and the cells in the 96-well plate were washed with cold DPBS (200 μl/well) for 3 times. 30 μL of cold 10 mM ammonium acetate (pH 7.4) was added into each well to lyse the cells (hypotonic lysis). After lysis on ice for 5 minutes, the cells were fully pipetted and the cell lysate was taken for LC-MS analysis. 4. Data Analysis The data were analyzed with GraphPad Prism 5.0 software, and fitted with nonlinear S-curve regression, so as to obtain a dose-effect curve to calculate the EC50 value. 5.

KHK-C [2] = molecular target: T1, KHK-C; assay: Inhibitory activity against KHK-C kinase in vitro (ADP-Glo), Experimental Protocol I; assay type: biochemical; conditions: 1 nM KHK-C, 100 μM ATP, 200 μM D-Fructose, control drug top concentration 10000 nM
Protocol: 2. […] 3. Reaction Termination and Detection • 1) The 384-well plate was added with 10 μL of the ADP Glo reagent, centrifuged at 1000 rpm for 1 min, and then incubated at room temperature of 25° C. for 40 min. • 2) The 384-well plate was added with 20 μL of the kinase detection reagent, centrifuged at 1000 rpm for 1 min, and then incubated at room temperature of 25° C. for 40 min. • 3) After the reaction was completed, the […] value LUM was read on Envision. 4. Data Analysis The following equation was used to calculate the inhibition (% inh): […]

T1 sequence (P50053 whole entry): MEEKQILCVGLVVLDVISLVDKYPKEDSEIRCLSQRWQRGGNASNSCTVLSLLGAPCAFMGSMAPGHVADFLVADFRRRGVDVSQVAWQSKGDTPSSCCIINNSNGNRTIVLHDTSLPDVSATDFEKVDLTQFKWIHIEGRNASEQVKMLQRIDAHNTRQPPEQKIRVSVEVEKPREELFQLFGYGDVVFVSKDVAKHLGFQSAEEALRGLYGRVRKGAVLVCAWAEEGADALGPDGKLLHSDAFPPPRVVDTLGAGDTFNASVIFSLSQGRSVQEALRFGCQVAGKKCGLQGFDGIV

SMILES | pIC50 (KHK-C [1]) | pEC50 (HepG2 cells; Homo sapiens) | pIC50 (KHK-C [2]) | pEC50 (HepG2 cells)
C[C@H]1N(c2nc(N3C[C@@H]4[C@@H](CC(=O)O)[C@@H]4C3)c3c(n2)C(F)(F)CCC3)CC1(F)F (single isomer, unassigned) [Compound 4-2] | 8.82 | 7.74 | – | –
C[C@H]1CCN1c1nc(N2C[C@@H]3[C@@H](CC(=O)O)[C@@H]3C2)c2c(n1)C(F)(F)CC2 [Compound 1, 2-((1R,5S,6R)-3-(7,7-difluoro-2-((S)-2-methylazetidin-1-yl)-6,7-dihydro-5H-cyclopenta[d]pyrimidin-4-yl)-3-azabicyclo[3.1.0]hexan-6-yl)acetic acid] | – | 7.66 | – | –
C[C@H]1CCN1c1nc(N2C[C@@H]3[C@@H](CC(=O)O)[C@@H]3C2)c2c(n1)C(F)(F)CCC2 [Compound 2, 2-((1R,5S,6R)-3-(8,8-difluoro-2-((S)-2-methylazetidin-1-yl)-5,6,7,8-tetrahydroquinazolin-4-yl)-3-azabicyclo[3.1.0]hexan-6-yl)acetic acid] | – | 7.84 | 9.28 | –
CC1C(F)CN1c1nc(N2C[C@@H]3[C@@H](CC(=O)O)[C@@H]3C2)c2c(n1)C(F)(F)CCC2 (stereo partly drawn) [Compound 3-1, 2-((1R,5S,6s)-3-(8,8-difluoro-2-(3-fluoro-2-methylazetidin-1-yl)-5,6,7,8-tetrahydroquinazolin-4-yl)-3-azabicyclo[3.1.0]hexan-6-yl)acetic acid] | 9.14 | 8.14 | – | –
CC1N(c2nc(N3C[C@@H]4[C@@H](CC(=O)O)[C@@H]4C3)c3c(n2)C(F)(F)CCC3)CC1(F)F (stereo partly drawn) [Compound 4-1, 2-((1R,5S,6s)-3-(2-(3,3-difluoro-2-methylazetidin-1-yl)-8,8-difluoro-5,6,7,8-tetrahydroquinazolin-4-yl)-3-azabicyclo[3.1.0]hexan-6-yl)acetic acid] | 8.66 | 7.93 | – | –
CC1C(F)CN1c1nc(N2C[C@@H]3[C@@H](CC(=O)O)[C@@H]3C2)c2c(n1)C(F)(F)CC2 (stereo partly drawn) [Compound 6-1, 2-((1R,5S,6s)-3-(7,7-difluoro-2-(3-fluoro-2-methylazetidin-1-yl)-6,7-dihydro-5H-cyclopenta[d]pyrimidin-4-yl)-3-azabicyclo[3.1.0]hexan-6-yl)acetic acid] | 9.05 | 7.41 | – | –
C[C@H]1CCN1c1nc(N2C[C@@H]3C(CC(=O)O)[C@@H]3C2)cc(C(F)(F)F)n1 (stereo partly drawn) [PF-06835919, reference compound] | – | – | – | 6.77
